These results are taken from ChEMBL document CHEMBL4616607, “3D proteome-wide scale screening and activity evaluation of a new ALKBH5 inhibitor in U87 glioblastoma cell line” (Bioorg Med Chem, 2020).

Test [1] relates to A549. The experiment in a line: Cytotoxicity against human A549 cells assessed as reduction in cell viability measured after 24 hrs by MTT assay. It is filed as functional, cell-based.
Test [2] relates to A549. The experiment in a line: Cytotoxicity against human A549 cells assessed as reduction in cell viability after 24 hrs by SRB assay. It is filed as functional, cell-based.
Test [3] concerns NCI-H460. Put plainly: Cytotoxicity against human H460 cells assessed as effect on cell viability at 1 to 50 uM measured after 24 hrs by MTT assay. It is filed as functional, cell-based.
Test [4] has as its system NCI-H460. The experiment in a line: Cytotoxicity against human H460 cells assessed as effect on cell viability at 1 to 50 uM measured after 24 hrs by SRB assay. It is filed as functional, cell-based.
For test [5], the system named is U-87 MG. Put plainly: Cytotoxicity against human U87MG cells assessed as effect on cell viability at 1 to 50 uM measured after 24 hrs by MTT assay. Type of test: functional, cell-based. The following applies: U-87MG ATCC.
Test [6] relates to U-87 MG. The experiment in a line: Cytotoxicity against human U87MG cells assessed as effect on cell viability at 1 to 50 uM measured after 24 hrs by SRB assay. The following applies: U-87MG ATCC. It is filed as functional, cell-based.
The subject of test [7] is U-87 MG. Put plainly: Antimigratory activity against human U87MG cells assessed as inhibition of cell migration measured after 6 hrs by scratch wound healing assay. It is filed as functional, cell-based, U-87MG ATCC.
Test [8] deals with NCI-H460. Put plainly: Antimigratory activity against human H460 cells assessed as inhibition of cell migration measured after 24 hrs by scratch wound healing assay. Type of test: functional, cell-based.
In test [9] the test system is A549. Put plainly: Antimigratory activity against human A549 cells assessed as reduction in cell migration at 25 uM measured after 24 hrs by scratch wound healing assay. It is filed as functional, cell-based.
Test [10] has as its system A549. Put plainly: Antiinvasive activity against human A549 cells assessed as reduction in cell invasion measured after 24 hrs using Diff-quick staining by light microscopy based Boyden chamber assay. It is filed as functional.
Test [11] deals with NCI-H460. The experiment in a line: Antiinvasive activity against human H460 cells assessed as reduction in cell invasion measured after 24 hrs using Diff-quick staining by light microscopy based Boyden chamber assay. It is filed as functional.
In test [12] the test system is U-87 MG. The experiment in a line: Antiinvasive activity against human U87MG cells assessed as reduction in cell invasion measured after 24 hrs using Diff-quick staining by light microscopy based Boyden chamber assay. Type of test: functional, U-87MG ATCC.
In test [13] the test system is U-87 MG. The experiment in a line: Antiinvasive activity against human U87MG cells assessed as reduction in cell invasion at 25 to 50 uM measured after 24 hrs using Diff-quick staining by light microscopy based Boyden chamber assay relative to control. Type of test: functional, U-87MG ATCC. Set-up: scale not given: the % may be the effect or the level left.
The target in test [14] is RNA demethylase ALKBH5 (Homo sapiens) (UniProt Q6P6C2). Put plainly: Inhibition of human recombinant ALKBH5 demethylase activity assessed as increase in methylated 6A-RNA level incubated for 30 min by dot blot analysis.
The target is the same in test [15]. The experiment in a line: Inhibition of human recombinant ALKBH5 demethylase activity assessed as increase in methylated 6A-RNA level at 10 to 25 uM incubated for 30 min by dot blot analysis relative to control.
The target is the same in test [16]. Put plainly: Inhibition of ALKBH5 demethylase activity in human U87MG cells assessed as decrease in CD73 expression measured after 1 to 24 hrs by Western blot analysis. It is filed as cell-based. The following applies: U-87MG ATCC.
Test [17] shares this target. Put plainly: Inhibition of ALKBH5 demethylase activity in human U87MG cells assessed as decrease in CD73 expression at 10 uM measured after 2 hrs by Western blot analysis. It is filed as cell-based. The following applies: U-87MG ATCC.
For test [18] the target is unchanged. The experiment in a line: Inhibition of ALKBH5 demethylase activity in human U87MG cells assessed as decrease in CD73 expression at 10 uM measured after 1 hr by Western blot analysis. Type of test: cell-based. The following applies: U-87MG ATCC.
The subject of test [19] is U-87 MG. The experiment in a line: Effect on CD73 mRNA expression in human U87MG cells at 10 to 25 uM measured after 1 to 6 hrs by RT-PCR analysis. It is filed as functional, cell-based. The following applies: U-87MG ATCC.

The source made the active and inactive calls. No cut-off for these calls is given here.

Sequence of RNA demethylase ALKBH5 (Homo sapiens) (Q6P6C2 2-394 limits assumed): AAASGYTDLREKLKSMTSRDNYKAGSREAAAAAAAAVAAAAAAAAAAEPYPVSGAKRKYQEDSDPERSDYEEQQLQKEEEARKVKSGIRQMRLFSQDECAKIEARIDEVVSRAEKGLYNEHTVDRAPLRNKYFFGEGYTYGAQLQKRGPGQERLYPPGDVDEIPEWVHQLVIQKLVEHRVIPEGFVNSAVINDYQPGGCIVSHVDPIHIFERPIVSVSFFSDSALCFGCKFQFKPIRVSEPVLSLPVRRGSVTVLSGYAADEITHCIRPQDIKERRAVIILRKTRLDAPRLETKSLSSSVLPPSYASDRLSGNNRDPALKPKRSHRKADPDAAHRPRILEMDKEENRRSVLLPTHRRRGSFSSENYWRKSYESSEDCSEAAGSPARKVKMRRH

For the compound `CCCc1c(C)nc2c3ccccc3oc(=S)n12`, the Activity result with A549 [1] was “Dose-dependent effect”; in the test on A549 [2], “Dose-dependent effect”; in the test on A549 [10], “Dose-dependent effect”; in the test with NCI-H460 [11] it was “Dose-dependent effect”; in the test on U-87 MG [12] (U-87MG ATCC), “Dose-dependent effect”; with U-87 MG [13] it was 90%. For the same compound, the result in the test on NCI-H460 [3], in the test with NCI-H460 [4], in the test with U-87 MG [5], in the test on U-87 MG [6], in the test on A549 [9] and in the test with U-87 MG [19] was inactive. For the same compound, the IC50 in the test with U-87 MG [7] was 11 µM; with NCI-H460 [8] (NCI-H460, 24 h), 10.1 µM; with A549 [10] (A549, 24 h) it was 26.2 µM; with NCI-H460 [11] (NCI-H460, 24 h) it was 17.8 µM; with U-87 MG [12], 2.48 µM. The inhibition result (in the test with U-87 MG [7] (U-87MG ATCC); with NCI-H460 [8]; in test [14]; in [16]) was “Dose-dependent effect” each time. For the same compound, the fold change (FC) in test [15] was determined as 3. In addition, the inhibition entry in test [17] and in test [18] was “Active” in each case.

Take `NC1=N[C@H](O)[C@H]2[C@H]3O[C@]4(O)O[C@@H]([C@@H](O)[C@@]2(N1)[C@@H]4O)[C@]3(O)CO`: the Activity entry with NCI-H460 [11] is “Dose-dependent effect”.
